In patent US9067977B2, “Peptides derivatized with A-B-C-D- and their therapeutical use” (Novo Nordisk A/S, priority 2007, dated 2015) one finds EC50 data, which are given here for three molecules.

For this data set, the target named is human serum albumin (HSA) (Homo sapiens, UniProt P02768). Put plainly: in vitro. The conditions noted are these: pH 7.4.
Sequence of human serum albumin (HSA) (P02768 25-609): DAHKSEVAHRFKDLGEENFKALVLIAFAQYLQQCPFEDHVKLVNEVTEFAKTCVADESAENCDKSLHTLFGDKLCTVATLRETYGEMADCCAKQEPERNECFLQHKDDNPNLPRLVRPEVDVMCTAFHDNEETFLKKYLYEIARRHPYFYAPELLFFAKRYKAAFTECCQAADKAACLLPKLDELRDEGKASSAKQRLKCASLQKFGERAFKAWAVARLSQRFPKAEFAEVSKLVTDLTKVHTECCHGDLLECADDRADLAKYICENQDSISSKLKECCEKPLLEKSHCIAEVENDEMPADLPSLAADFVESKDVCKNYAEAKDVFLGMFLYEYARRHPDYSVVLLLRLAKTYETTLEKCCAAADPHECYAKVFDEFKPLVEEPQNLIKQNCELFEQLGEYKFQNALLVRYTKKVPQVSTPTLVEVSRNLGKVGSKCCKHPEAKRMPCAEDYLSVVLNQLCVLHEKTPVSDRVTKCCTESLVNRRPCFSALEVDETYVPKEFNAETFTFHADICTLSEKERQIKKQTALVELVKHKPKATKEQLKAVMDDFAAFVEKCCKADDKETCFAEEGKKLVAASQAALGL

Method: Streptavidin-SPA beads (GE Healthcare RPNQ0009) were incubated with biotinylated HSA for 5 hours. The beads were washed with buffer to remove unbound HSA. […] After 20 hours of gentle rocking at room temperature the plates were centrifuged and counted on a TopCounter.

One may read the EC50 as the concentration at which the effect is half-maximal. In turn, `CC[C@H](C)[C@H](NC(=O)[C@H](Cc1ccccc1)NC(=O)[C@H](CCC(=O)O)NC(=O)[C@H](CCCCNC(=O)COCCOCCNC(=O)CC[C@H](NC(=O)CC[C@H](NC(=O)CCCCCNC(=O)CCCS(=O)(=O)NC(=O)CCCCCCCCCCCCCCCc1nnn[nH]1)C(=O)O)C(=O)O)NC(=O)[C@H](C)NC(=O)[C@H](C)NC(=O)[C@H](CCC(N)=O)NC(=O)CNC(=O)[C@H](CCC(=O)O)NC(=O)[C@H](CC(C)C)NC(=O)[C@H](Cc1ccc(O)cc1)NC(=O)[C@H](CO)NC(=O)[C@H](CO)NC(=O)[C@@H](NC(=O)[C@H](CC(=O)O)NC(=O)[C@H](CO)NC(=O)[C@@H](NC(=O)[C@H](Cc1ccccc1)NC(=O)[C@@H](NC(=O)CNC(=O)[C@H](CCC(=O)O)NC(=O)C(C)(C)NC(=O)[C@@H](N)Cc1c[nH]cn1)[C@@H](C)O)[C@@H](C)O)C(C)C)C(=O)N[C@@H](C)C(=O)N[C@@H](Cc1c[nH]c2ccccc12)C(=O)N[C@@H](CC(C)C)C(=O)N[C@H](C(=O)N[C@@H](CCCNC(=N)N)C(=O)NCC(=O)O)C(C)C` [Example 40, N-epsilon26-[2-(2-{2-[(S)-4-Carboxy-4-((S)-4-carboxy-4-{6-[4-(16-(1H-tetrazol-5-yl)hexadecanoylsulfamoyl)butyrylamino]hexanoylamino}butyrylamino)butyrylamino]ethoxy}ethoxy)acetyl][Aib8,Arg34]GLP-1-(7-35)] displayed an EC50 at 20 h of 150 to 300 nM. On to `CC[C@H](C)[C@H](NC(=O)[C@H](Cc1ccccc1)NC(=O)[C@H](CCC(=O)O)NC(=O)[C@H](CCCCNC(=O)COCCOCCNC(=O)CC[C@H](NC(=O)CC[C@H](NC(=O)CCCCCCCCCCCNC(=O)CCCS(=O)(=O)NC(=O)CCCCCCCCCCCCCCCc1nnn[nH]1)C(=O)O)C(=O)O)NC(=O)[C@H](C)NC(=O)[C@H](C)NC(=O)[C@H](CCC(N)=O)NC(=O)CNC(=O)[C@H](CCC(=O)O)NC(=O)[C@H](CC(C)C)NC(=O)[C@H](Cc1ccc(O)cc1)NC(=O)[C@H](CO)NC(=O)[C@H](CO)NC(=O)[C@@H](NC(=O)[C@H](CC(=O)O)NC(=O)[C@H](CO)NC(=O)[C@@H](NC(=O)[C@H](Cc1ccccc1)NC(=O)[C@@H](NC(=O)CNC(=O)[C@H](CCC(=O)O)NC(=O)C(C)(C)NC(=O)[C@@H](N)Cc1c[nH]cn1)[C@@H](C)O)[C@@H](C)O)C(C)C)C(=O)N[C@@H](C)C(=O)N[C@@H](Cc1c[nH]c2ccccc12)C(=O)N[C@@H](CC(C)C)C(=O)N[C@@H](CCCCN)C(=O)NCC(=O)O` [Example 43, N-epsilon26-[2-(2-{2-[(S)-4-Carboxy-4-((S)-4-carboxy-4-{12-[4-(16-(1H-tetrazol-5-yl)hexadecanoylsulfamoyl)butyrylamino]dodecanoylamino}butyrylamino)butyrylamino]ethoxy}ethoxy)acetyl][Aib8,Lys33,Arg34]GLP-1-(7-34)], for which the EC50 fell in the range of 1 to 100 nM.

In turn, `CC[C@H](C)[C@H](NC(=O)[C@H](Cc1ccccc1)NC(=O)[C@H](CCC(=O)O)NC(=O)[C@H](CCCCNC(=O)COCCOCCNC(=O)CC[C@H](NC(=O)CC[C@H](NC(=O)CCCCCCCCCCCNC(=O)CCCS(=O)(=O)NC(=O)CCCCCCCCCCCCCCCc1nnn[nH]1)C(=O)O)C(=O)O)NC(=O)[C@H](C)NC(=O)[C@H](C)NC(=O)[C@H](CCC(N)=O)NC(=O)CNC(=O)[C@H](CCC(=O)O)NC(=O)[C@H](CC(C)C)NC(=O)[C@H](Cc1ccc(O)cc1)NC(=O)[C@H](CO)NC(=O)[C@H](CO)NC(=O)[C@@H](NC(=O)[C@H](CC(=O)O)NC(=O)[C@H](CO)NC(=O)[C@@H](NC(=O)[C@H](Cc1ccccc1)NC(=O)[C@@H](NC(=O)CNC(=O)[C@H](CCC(=O)O)NC(=O)C(C)(C)NC(=O)[C@@H](N)Cc1c[nH]cn1)[C@@H](C)O)[C@@H](C)O)C(C)C)C(=O)N[C@@H](C)C(=O)N[C@@H](Cc1c[nH]c2ccccc12)C(=O)N[C@@H](CC(C)C)C(=O)N[C@H](C(=O)N[C@@H](CCCNC(=N)N)C(=O)NCC(=O)O)C(C)C` [Example 39, N-epsilon26-[2-(2-{2-[(S)-4-Carboxy-4-((S)-4-carboxy-4-{12-[4-(16-(1H-tetrazol-5-yl)hexadecanoylsulfamoyl)butyrylamino]dodecanoylamino}butyrylamino)butyrylamino]ethoxy}ethoxy)acetyl][Aib8,Arg34]GLP-1-(7-35)] showed an EC50 at 20 h of 1 to 100 nM.
